Series [1] concerns Ileum of Guinea Pig (agonist Histamine). Briefly: Test on isolated organ: contraction by histamine. Format: cell-based. The settings on record: Cavia porcellus, agonist Histamine 0.05 μ, read-out: Cl-50 of products, Histamine. The procedure: (§1) During this test, the products are added to the bath in an aqueous solution. The interaction of the various products is determined with different […]: Histamine, acetyl choline, serotonine and norepinephrine. The […] are employed in constant doses to produce contractions in the various biological reactants described below in table III.
(§2) The micromolar concentration which inhibits 50% of the response produced by the constant concentration of each agonist (Cl-50) is determined for each derivative.

In series [2] the test system is Deferent of Rat (agonist Norepinephrine). Briefly: Test on isolated organ: contraction by norepinephrine. The settings on record: agonist Norepinephrine 1.0 μ, read-out: Cl-50 of products, Norepinephrine. It is filed as cell-based. The procedure: as §1, §2
The nature of the next series: Acute toxicity in mice. Conditions: mouse, in vivo. The procedure: The lethal dose 50 (LD-50) of various derivatives administered orally and intra-peritoneally to mice weighing between 20 and 25 g was determined.
The subject of series [3] is Uterus of Rat (agonist Seratonine). Briefly: Test on isolated organ: contraction by serotonine. Format: cell-based. The settings on record: agonist Seratonine 0.10 μ, read-out: Cl-50 of products, Seratonine. The procedure: as §1, §2
Series [4] deals with Ileum of Guinea Pig (agonist Acetyl Choline). Briefly: Test on isolated organ: contraction by acetyl choline. It is filed as cell-based. Conditions: Cavia porcellus, agonist Acetyl Choline 0.05 μ, read-out: Cl-50 of products, Acetyl Choline. The procedure: as §1, §2
Series [5] deals with gastric secretion stimulated by carbachol. Briefly: Gastric anti-secretory action, secretion stimulated by carbachol (Ghosh and Schild method). It is filed as in vivo, Sprague-Dawley rats. Conditions: Rattus norvegicus; intravenous dose inhibiting by 50% the gastric secretion caused by carbachol 5 nmoles/kg i.v., rats; read-out: DI-50 with carbachol. The procedure: (§3) Sprague-Dawley rats having a body weight of from 300 to 350 g are used for studying the antagonistic action of the "H2 " histamine receptor sites by the method described by Ghosh and Schild (1958). The gastric secretion is stimulated by intravenous injection of constant doses of histamine (2.5 μmoles/kg) or of carbachol (5 nmoles /kg). The gastric anti-secretory action is then determined by the intravenous dose (in μmole/kg) of derivative which inhibits by 50% the effect caused by the histamine or carbachol (DI-50).

Series [6] concerns "H2" histamine receptor sites. Briefly: Gastric anti-secretory action, secretion stimulated by histamine (Ghosh and Schild method). Format: in vivo, Sprague-Dawley rats. The settings on record: intravenous dose inhibiting by 50% the gastric secretion caused by histamine 2.5 μmoles/kg i.v., rats. The procedure: as §3
Series [7] can be described thus: Sub-acute toxicity by oral means with rats. Conditions: rat, in vivo. The procedure: Three batches of Sprague-Dawley rats each consisting of six males and six females were used. N-(2-piperidinoethyl)-4-tertiary-butyl-3'-chlorodiphenylamine hydrochloride was administered orally to the first two batches in doses of 200 mg/kg and 50 mg/kg respectively. The third batch received a zero dose (distilled water) and was thus used as a control.

A short description of another series: Acute toxicity in rats. The settings on record: rat, in vivo; Sprague-Dawley rats 150 to 180 g, oral; read-out: LD-50 by the oral route in rats. The procedure: The acute toxicity was determined by oral means in Sprague-Dawley rats having a body weight of 150 to 180 g. The LD-50 of N-(2-piperidinoethyl)-tertiary-butyl-3'-chlorodiphenylamine hydrochloride by the oral route in rats is above 3500 mg/kg.

[8] abbreviates: ip, mice 20-25 g, intra-peritoneal, read-out: LD-50 i.p.
Setting [9] is: mice 20-25 g, oral, read-out: LD-50 Orally.

pIC50: −log10 of the molar value. Where “and” joins values, the source holds several entries; their conditions need not be identical. Equal values may be shown once. A value given as a limit tells only on which side of the number the result lay.

As to `CC(C)(C)c1ccc(N(CCN2CCCC2)c2cccc(Cl)c2)cc1` [Example 4, N(2-pyrrolidinoethyl)-4-tert.butyl 3'-chlorodiphenylamine], the pIC50 in series [1] is 4.70; in series [2], 4.60; in series [3], 7.30; in series [4] it was 4.60. In addition, the LD50 was 155 mg/kg and 390 µmol/kg in “Acute toxicity in mice” (setting [8]); 3000 mg/kg and 7620 µmol/kg in “Acute toxicity in mice” (setting [9]). The ED50 in [5] stood at 20 µmol/kg. The DI-50 with histamine in series [6] turned out to be 2.2 µmol/kg.

As for `CC(C)(C)c1ccc(N(CCN2CCCCC2)c2cccc(Cl)c2)cc1` [Example 1, N-(2-piperidino-ethyl)-4-tertiary butyl-3'-chlorodiphenylamine], the figures for the mortality in [7] (50 mg/kg) and in [7] (200 mg/kg) were 8.33% and 33%, respectively. Further, the pIC50 in [1] was 5.65; in [2], 4.61; in series [3], 6.42; in series [4] it was 4.59. Moreover, the LD50 in “Acute toxicity in mice” (ip, read-out: LD-50 i.p.) was 1000 mg/kg and 2450 µmol/kg; in “Acute toxicity in mice” (po, read-out: LD-50 Orally), > 3500 mg/kg and > 8500 µmol/kg; in “Acute toxicity in rats” it was over 3500 mg/kg. For the same molecule, the ED50 in [5] was over 20 µmol/kg. Further, the DI-50 with histamine in series [6] turned out to be 1.0 µmol/kg.

On to `CCN(CC)CCN(c1ccc(C(C)(C)C)cc1)c1cccc(Cl)c1` [Example 3, N(2-diethylaminoethyl)-4-tert.butyl 3'-chlorodiphenylamine], for which the pIC50 was 4.56 in [1], 4.60 in [2], 5.59 in series [3] and 4.60 in series [4]. For the same molecule, the LD50 is 395 mg/kg and 1000 µmol/kg in “Acute toxicity in mice” (setting [8]); > 6000 mg/kg and > 15000 µmol/kg in the series “Acute toxicity in mice” (setting [9]). Besides, the ED50 in series [5] is over 20 µmol/kg. The DI-50 with histamine in [6] is 6.0 µmol/kg.

The values are drawn from US4216214A, “4-Tert. butyl-3'-chlorodiphenylamine derivatives, their preparation and their application as anti-histaminic drugs” (PRODESIN (Productos Esteve Internacional S.A.), priority 1977, dated 1980).
